The source of these data is patent publication US4843158A, “[2,2,1]Cryptand compounds that selectively bind sodium” (priority 1985, dated 1989).

Series [1] can be described thus: Cation binding titration, sodium (fluorescence and 19F NMR titrations). The following applies: for Cation Binding Constant (log k), Na+: 37° C. The procedure:
(§1) Fluorescence titrations: Ionic titrations of chelator fluorescence were performed on a Perkin Elmer 44E spectrofluorometer at a chelator concentration of 10 μM in 100 mM tris/acetic acid buffer at 37° C. Fluorescence emission from all of the chelators was monitored at a constant wavelength between 370 and 390 nm. The excitation spectra from 210 to 350 nm were recorded in the ratio mode and the proportion of M^n+ chelator complex was calculated from the fluorescence intensities at the most sensitive excitation wavelengths. The binding constants were estimated graphically from plots of log (bound/free) chelator against log free [M^n+ ]. (Slopes were 1.00±<0.05).
(§2) NMR titrations: Nmr spectra were recorded on Bruker WH 200 or Am 400 spectrometers at 188 or 376 MHz respectively at chelator concentrations between 5 and 10 mM in the same buffer as for fluorescence titrations but containing 20% D2 O at 37° C. The spectra were obtained with an acquisition time of 1.0 sec. and a 90° pulse and were processed with resolution enhancement (-0.5 of the observed line width) and appropriate gaussian sensitivity enhancement. The proportion of M^n+ -chelator complex was calculated from the integrals of the resolved free and bound chelator ^19 F resonances, or from the chemical shift of complexes in fast exchange. The apparent affinities were determined graphically as for the fluorescence data, but using a two step iteration from the affinity derived from the fluorescence data when the dissociation constant was close to the chelator concentration in the nmr titrations.

The nature of series [2]: Cation binding titration, potassium (fluorescence and 19F NMR titrations). The note with it: 37° C.; from NMR. The procedure:
as §1
as §2, with “The spectra were obtained with an acquisition time of 1.0 sec. and a 90° pulse and were processed with resolution enhancement (-0.5 of the observed line width) and appropriate gaussian sensitivity enhancement.” left out

Series [3] in a line: Cation induced 19F NMR chemical shift, sodium. In kind it is binding. More on the design: key: fast exchange; slow exchange. The following applies: 37° C. The procedure:
as §2

A short description of series [4]: Cation induced 19F NMR chemical shift, potassium. Also on record: key: fast exchange; slow exchange. In kind it is binding. The following applies: 37° C. As for the experimental part: as §2
The format of series [5] is binding. The following applies: tris/acetic acid buffer. As for the experimental part: as §1
Series [6] is described as follows: Selectivity for sodium ions over potassium (and other) ions. In kind it is binding.
Series [7] relates to Lymphocytes. Briefly: Intracellular sodium by 19F NMR in pig mesenteric lymph node lymphocytes. The series is classed as cell-based. As for the experimental part:
(§3) Lymphocytes (1 ml packed cells) were prepared from pig mesenteric lymphnodes by standard procedure in RPM1 medium. The cells suspended in RPM1 (200 ml) were treated with the tetra-acetoxymethyl ester of Example 3 (4.5 mg) in DMSO (100 μl) and incubated at 37° C. for 1 hour. The cells were isolated by centrifugation and suspended in RPM1 (20 ml) in the spectrometer probe, with continuous dialysis against oxygenated medium and the data collected. The signal appeared after 3 hours and was collected for a further 3 hours.

For series [8], the system named is cellular function. In kind it is cell-based. The procedure: as §3

Turning to `O=C(O)CN(CC(=O)O)c1ccc2c(c1)OCCN1CCOCCN(CCO2)c2ccc(F)cc2OCCOc2cc(F)ccc21` [Compound 7a], the “Cation Binding Constant (log k), Na+” value in series [1] (from NMR) turned out to be 6. For the same molecule, in series [2], the “Cation Binding Constant (log k), K+” value is listed as 2.3. Further, the “Exchange (fast/slow), Na+” value in series [3] is on record as “s”. In series [4], the “Exchange (fast/slow), K+” value is “f”.
For `O=C(O)CN(CC(=O)O)c1cccc(N2CCN3CCOc4ccc(N(CC(=O)O)CC(=O)O)cc4OCCN(CC2)c2ccc(F)cc2OCCOc2cc(F)ccc23)c1` [Compound 7d], in series [1] (from NMR and from fluorescence at 370 nm), the “Cation Binding Constant (log k), Na+” value is listed as 1.6. Besides, the “Cation Binding Constant (log k), H+” value in series [5] was 7.0. In addition, the “Exchange (fast/slow), Na+” value in series [3] was “f”.
As for `CC(=O)OCOC(=O)CN(CC(=O)OCOC(C)=O)c1cccc(N2CCN3CCOc4cc(C(C)=O)c(N(CC(=O)OCOC(C)=O)CC(=O)OCOC(C)=O)cc4OCCN(CC2)c2ccc(F)cc2OCCOc2cc(F)ccc23)c1` [Example 3], in series [1] (read-out: dissociation constant of the sodium complex), the Kd is 40 mM. The “selectivity for sodium ions (in words)” value in series [6] is “high selectivity for sodium over all other ions and in particular over potassium”. In series [7] (37° C., standard 1,2-bis (2-amino-5-fluorophenoxy) ethane-N,N,N',N'-tetracetic acid), the “19F chemical shift downfield from the standard” value is given as 5.99 ppm. The “intracellular sodium ion concentration indicated” value in series [7] (from 19F chemical shift) was “about 13 mM”. Also, the “adverse effect on cellular function” value in series [8] was “has not shown any adverse effect on cellular function”.
As to `CC(=O)c1cc2c(cc1N(CC(=O)O)CC(=O)O)OCCN1CCN(c3cccc(N(CC(=O)O)CC(=O)O)c3)CCN(CCO2)c2ccc(F)cc2OCCOc2cc(F)ccc21` [Compound 8d], the “Cation Binding Constant (log k), Na+” value in series [1] (from NMR) is 1.3. Moreover, the “Exchange (fast/slow), Na+” value in series [3] is listed as “f”.
